This passage reports IC50 results from BindingDB's records for patent US20250091994 (Kobe University, 2025).

pIC50: −log10 of the molar value.

Chain of GTPase HRas [G12V] (P01112 whole entry G12V, looked up): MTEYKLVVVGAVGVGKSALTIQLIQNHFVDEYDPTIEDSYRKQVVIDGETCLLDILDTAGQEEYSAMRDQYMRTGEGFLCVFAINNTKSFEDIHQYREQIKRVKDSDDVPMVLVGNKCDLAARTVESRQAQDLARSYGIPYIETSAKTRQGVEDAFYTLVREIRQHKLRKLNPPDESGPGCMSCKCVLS

For this assay, the target named is GTPase HRas [G12V] (Homo sapiens, UniProt P01112, G12V). Nature of the assay: In Vitro Ras-Raf Binding Inhibitory Activity Assay. The method, then:
The in vitro Ras-Raf binding inhibitory activity of the compound of the present invention was evaluated by an ELISA method described below. GST-c-Raf-1 RBD diluted with a Ras-Raf binding buffer (50 mM Tris-HCl pH7.4, 150 mM NaCl, 5 mM MgCl2, 1 mM EDTA, and 1% Triton-X100) was added to each well of a glutathione-coated 96-well plate (Thermo Fisher Scientific.), and was incubated at 30° C. for 1 hour, to immobilize Raf on the well. The unbound free Raf was eliminated by washing the well with the Ras-Raf binding buffer three times. Subsequently, GTPTS-bound HRasG12V diluted with the Ras-Raf binding buffer and each compound solution (final DMSO concentration: 10%) were applied to each well, and the resulting mixture was then incubated at 30° C. for 1 hour, so that Ras and Raf were allowed to bind to each other. Thereafter, the plate was washed with the Ras-Raf binding buffer twice, and was then subjected to a blocking treatment at room temperature for 20 minutes, using TBS-Tween {10 mM Tris-HCl pH 7.4, 150 mM NaCl, and 0.05% (w/v) Tween-20}-5% (w/v) bovine serum albumin (BSA). After that, an anti-HRas antibody (C-20, Santa Cruz) or an anti-HRas antibody (259, Santa Cruz), which had been 1000 times diluted with TBS-Tween-5% BSA, was added to the reaction mixture, and incubated at room temperature for 1 hours. After the treatment with the primary antibody, the plate was washed with TBS-Tween-5% BSA three times, and a horseradish peroxidase-labeled secondary antibody against rabbit immunoglobulin G (GE Healthcare) of 1000 times diluted with TBS-Tween-5% BSA, was added to the plate, followed by incubation at room temperature for 1 hour. After the treatment with the secondary antibody, the plate was washed with TBS-Tween-5% BSA three times, and a substrate solution (TMB) was then added to the plate, followed by incubation at room temperature for 15 minutes for coloration. Finally, 2 M H2SO4 was added to stop color development (coloration reaction kit: Nacalai Tesque).
In turn, `COC1(COC(=O)N2CCN(C(=O)c3ccc4nc(/C=C5/C(=O)c6ccccc6N5C(C)=O)ccc4c3)CC2)COC1` [US20250091994, Example 120] had a pIC50 of 5.66.

With `CC(=O)N1C(=Cc2ccc(OCC(=O)N3CCOCC3)c(-c3ccccc3)c2)C(=O)c2ccccc21` [US20250091994, Example 29], the pIC50 is 4.89.

With `CC(=O)N1/C(=C/c2nc3cc(C(=O)N4CC(C)OC(C)C4)ccc3s2)C(=O)c2ccccc21` (stereo not given) [US20250091994, Example 99], the pIC50 was 6.11.

As for `CC(=O)N1C(=Cc2ccc(C(=O)N3CCOCC3)cc2)C(=O)c2ccccc21` [US20250091994, Example 67], the pIC50 is 5.25.

With `CC(=O)N1C(=Cc2cc(-c3ccc(Oc4ccccc4)cc3)c3cc(C(=O)N4CCOCC4)ccc3n2)C(=O)c2ccccc21` [US20250091994, Example 92], the pIC50 was 5.55.

`CC(=O)N1CCc2c(cccc2-c2cc(/C=C3/C(=O)c4ccccc4N3C(C)=O)nc3ccc(CNC4CCOCC4)cc23)C1` [US20250091994, Example 207] had a pIC50 of 6.15. Compared with the last molecule, the pIC50 is 0.60 log units higher.

Take `CC(=O)NCc1cccc2c1C(=O)/C(=C/c1ccc3cc(C(=O)N4CCOCC4)ccc3n1)N2C(C)=O` [US20250091994, Example 106]: the negative logarithm of the IC50 (pIC50) was 5.39.

Regarding `CC(=O)N1CCc2c(cccc2-c2cc(/C=C3/C(=O)c4ccccc4N3C(C)=O)nc3ccccc23)C1` [US20250091994, Example 193], the pIC50 is 6.15.

`CC(=O)N1/C(=C\c2ccc3cc(OCC(=O)N4CCOCC4)ccc3n2)C(=O)c2ccccc21` [US20250091994, Example 65] showed a pIC50 of 5.62.

Regarding `CC(=O)N1/C(=C/c2nc3cc(C(=O)N4CCOCC4)ccc3s2)C(=O)c2ccccc21` [US20250091994, Example 48], the pIC50 is 5.46.

The molecule `CC(=O)N1C(=Cc2ccc3cc(C(=O)N4CCOCC4)ccc3n2)C(=O)c2ccccc21` [US20250091994, Example 28] showed a pIC50 of 6.06.

`CC(=O)N1C(=Cc2ccc(OCC(N)=O)c(Cl)c2)C(=O)c2ccccc21` [US20250091994, Example 17] showed a pIC50 of 5.02.

`CC(=O)N1C(=Cc2cc(-c3ccccc3-c3ccccc3)c3cc(C(=O)NC4CCN(C5COC5)CC4)ccc3n2)C(=O)c2ccccc21` [US20250091994, Example 97] had a pIC50 of 6.29.

As to `CC(=O)N1/C(=C/c2nc3ccc(C(=O)N4CCOCC4)cc3s2)C(=O)c2ccccc21` [US20250091994, Example 58], the pIC50 is 6.15.

With `CC(=O)N1CCc2cc(-c3c(C(=O)N4CCOCC4)ccc4nc(/C=C5/C(=O)c6ccccc6N5C(C)=O)ccc34)ccc2C1` [US20250091994, Example 200], the pIC50 is 6.00.

Turning to `COc1cc(C=C2C(=O)c3ccc(F)cc3N2C(C)=O)ccc1OCC(=O)N1CCOCC1` [US20250091994, Example 103], the pIC50 was 5.00. Against the preceding molecule, the pIC50 is 1.00 log units lower.

`CC(=O)N1/C(=C\c2ccc3cc(C(=O)N4CCN(C5COC5)CC4)ccc3n2)C(=O)c2ccccc21` [US20250091994, Example 41] had a pIC50 of 5.33. This pIC50 is 0.33 log units higher than that of the molecule before.

For the molecule `CC(=O)N1C(=Cc2ccc3cc(CNC4CCOCC4)ccc3n2)C(=O)c2ccccc21` [US20250091994, Example 131], the pIC50 is 5.82. Against the preceding molecule, the pIC50 is 0.49 log units higher.

The molecule `CC(=O)N1CCc2c(cccc2-c2cc(/C=C3/C(=O)c4ccccc4N3C(C)=O)nc3ccc(C(=O)N4CCOCC4)cc23)C1` [US20250091994, Example 146] had a pIC50 of 6.30.

In turn, `CC(=O)N1C(=Cc2ccc3cc(OCCO)ccc3n2)C(=O)c2ccccc21` [US20250091994, Example 126] gave a pIC50 of 5.85.

Turning to `CC(=O)N1CCc2cc(-c3cc(/C=C4/C(=O)c5ccccc5N4C(C)=O)nc4ccccc34)ccc2C1` [US20250091994, Example 187], the pIC50 is 6.30.

The molecule `CC(=O)N1/C(=C/c2nc3cc(/C=C/C(=O)N4CCOCC4)ccc3s2)C(=O)c2ccccc21` [US20250091994, Example 110] had a pIC50 of 6.38.

`CC(=O)N1C(=Cc2ccc3cc(CNS(C)(=O)=O)ccc3n2)C(=O)c2ccccc21` [US20250091994, Example 64] gave a pIC50 of 5.96.

Consider `CC(=O)N1/C(=C\c2cc(Cl)c3cc(C(=O)N4CCOCC4)ccc3n2)C(=O)c2ccccc21` [US20250091994, Example 82], for which the pIC50 is 6.21.

For `CC(=O)N1/C(=C\c2ccc3c(-c4cnn(C)c4)c(C(=O)N4CCOCC4)ccc3n2)C(=O)c2ccccc21` [US20250091994, Example 199], the pIC50 is 5.68.

For the molecule `COc1cc(/C=C2/C(=O)c3ccccc3N2C(C)=O)ccc1OCC(N)=O` [US20250091994, Example 1], the pIC50 is 5.16.

As for `CC(=O)N1/C(=C/c2ncc(C(=O)N3CCOCC3)s2)C(=O)c2ccccc21` [US20250091994, Example 68], the pIC50 is 5.64.

On to `COc1cc(C=C2C(=O)c3ccccc3N2C(C)=O)ccc1OCCO` [US20250091994, Example 125], for which the pIC50 was 5.55.

`COc1cc(/C=C2/C(=O)c3cccnc3N2C(C)=O)ccc1OCC(=O)N1CCOCC1` [US20250091994, Example 51] gave a pIC50 of 5.68.

`CC(=O)N1/C(=C\c2nc3ccc(C(=O)N4CCOCC4)cc3s2)C(=O)c2ccccc21` [US20250091994, Example 59] showed a pIC50 of 5.40.

Turning to `COCC(O)CN1CCN(C(=O)c2ccc3nc(/C=C4/C(=O)c5ccccc5N4C(C)=O)cc(-c4ccccc4-c4ccccc4)c3c2)CC1` (stereo not given) [US20250091994, Example 96], the pIC50 is 6.46.

Molecule `CC(=O)N1/C(=C\c2cc(-c3cccnc3)c3cc(C(=O)N4CCOCC4)ccc3n2)C(=O)c2ccccc21` [US20250091994, Example 85] gave a pIC50 of 6.24. This pIC50 lies 0.22 log units lower than the previous one.

`CC(=O)N1C(=Cc2ccc3cc(C(=O)N4CCNCC4)ccc3n2)C(=O)c2ccccc21` [US20250091994, Example 139] had a pIC50 of 5.22.

The molecule `CC(=O)N1/C(=C\c2ccc3cc(CCC(=O)N4CCOCC4)ccc3n2)C(=O)c2ccccc21` [US20250091994, Example 45] gave a pIC50 of 5.92. This pIC50 lies 0.70 log units higher than the previous one.

Take `CC(=O)N1/C(=C/c2nc3ccc(CNC4CCOCC4)cc3s2)C(=O)c2ccccc21` [US20250091994, Example 135]: the pIC50 was 6.10.

Consider `COC1(CN2CCN(C(=O)c3ccc4nc(/C=C5/C(=O)c6ccccc6N5C(C)=O)ccc4c3)CC2)COC1` [US20250091994, Example 119], for which the pIC50 is 5.54.

Turning to `CC(=O)N1CCCC(c2cc(/C=C3/C(=O)c4ccccc4N3C(C)=O)nc3ccc(C(=O)N4CCOCC4)cc23)C1` (stereo not given) [US20250091994, Example 179], the pIC50 is 6.00.

On to `CC(=O)N1/C(=C/c2cc(-c3cccc(-c4cn[nH]c4)c3)c3cc(C(=O)N4CCOCC4)ccc3n2)C(=O)c2ccccc21` [US20250091994, Example 148], for which the pIC50 was 6.52.

With `CCOc1cc(/C=C2/C(=O)c3ccccc3N2C(C)=O)ccc1OCC(N)=O` [US20250091994, Example 13], the pIC50 is 5.60. This pIC50 lies 0.92 log units lower than the previous one.

The molecule `CC(=O)N1C(=Cc2cc(-c3ccc(-c4ccccc4)cc3)c3cc(C(=O)N4CCN(C5COC5)CC4)ccc3n2)C(=O)c2ccccc21` [US20250091994, Example 162] showed a pIC50 of 5.62.

`CC(=O)N1/C(=C\c2ccc3cc(C(=O)N4CCC(c5ccccc5)CC4)ccc3n2)C(=O)c2ccccc21` [US20250091994, Example 114] had a pIC50 of 4.54.

Molecule `COc1cc(/C=C2/C(=O)c3ccccc3N2C(C)=O)ccc1/C=C/C(N)=O` [US20250091994, Example 20] showed a pIC50 of 5.00.

For the molecule `CC(=O)N1C(=Cc2cc(-c3cncnc3)c3cc(C(=O)N4CCOCC4)ccc3n2)C(=O)c2ccccc21` [US20250091994, Example 185], the pIC50 is 5.80.

`CC(=O)N1C(=Cc2ccc3ccc(C(=O)N4CCOCC4)cc3n2)C(=O)c2ccccc21` [US20250091994, Example 62] had a pIC50 of 5.25.

Molecule `CC(=O)N1/C(=C\c2cc(-c3ccccc3-c3cnn(C)c3)c3cc(C(=O)N4CCOCC4)ccc3n2)C(=O)c2ccccc21` [US20250091994, Example 196] had a pIC50 of 6.10. Compared with the last molecule, the pIC50 is 0.85 log units higher.

In the case of `CC(=O)N1/C(=C\c2cc(-c3cccc(-c4cnn(C)c4)c3)c3cc(C(=O)N4CCOCC4)ccc3n2)C(=O)c2ccccc21` [US20250091994, Example 149], the pIC50 is 6.52.

`CCOC(=O)N1C(=Cc2ccc(OCC(=O)N3CCOCC3)c(OC)c2)C(=O)c2ccccc21` [US20250091994, Example 123] had a pIC50 of 5.07.

As for `CC(=O)N1C(=Cc2cc(-c3ccccc3-c3cnn(C)c3)c3cc(CNC4CCOCC4)ccc3n2)C(=O)c2ccccc21` [US20250091994, Example 206], the pIC50 is 5.70.

Take `CC(=O)N1/C(=C\c2cc(-c3cnn(C)c3)c3ccccc3n2)C(=O)c2ccccc21` [US20250091994, Example 177]: the pIC50 is 6.10.

Turning to `COc1cc(/C=C2/C(=O)c3ccccc3N2C(C)=O)ccc1OS(C)(=O)=O` [US20250091994, Example 21], the pIC50 is 5.14.
